Laboratory results reported in patent publication US20220135590A1, “ISOXAZOLE COMPOUNDS FOR THE TREATMENT OF DISEASES ASSOCIATED WITH HBV INFECTIONS” (Janssen Science Ireland Unlimited Company, priority 2017, published 2022).

Test system: HBV
Assay: HBV replication inhibition assay (BDNA assay) in HepG2.2.15 cells
Type: cell-based
Conditions: Hepatitis B virus, 144 h, 6 days incubation, encapsidated HBV DNA in supernatant by branched DNA QuantiGene assay
Method: HBV Replication Inhibition Assay
HBV replication inhibition by the disclosed compounds were determined in cells infected or transfected with HBV or cells with stably integrated HBV, such as HepG2.2.15 cells (Sells et al. 1987). In this example, HepG2.2.15 cells were maintained in cell culture medium containing 10% fetal bovine serum (FBS), Geneticin, L-glutamine, penicillin and streptomycin. HepG2.2.15 cells were seeded in 96-well plates at a density of 40,000 cells/well and were treated with serially diluted compounds at a final DMSO concentration of 0.5% either alone or in combination by adding drugs in a checker box format. Cells were incubated with compounds for three days, after which medium was removed and fresh medium containing compounds was added to cells and incubated for another three days. At day 6, supernatant was removed and treated with DNase at 37° C. for 60 minutes, followed by enzyme inactivation at 75° C. for 15 minutes. Encapsidated HBV DNA was released from the virions and covalently linked HBV polymerase by incubating in lysis buffer (Affymetrix QS0010) containing 2.5 μg proteinase K at 50° C. for 40 minutes. HBV DNA was denatured by addition of 0.2 M NaOH and detected using a branched DNA (BDNA) QuantiGene assay kit according to manufacturer recommendation (Affymetrix). HBV DNA levels were also quantified using qPCR, based on amplification of encapsidated HBV DNA extraction with QuickExtraction Solution (Epicentre Biotechnologies) and amplification of HBV DNA using HBV specific PCR probes that can hybridize to HBV DNA and a fluorescently labeled probe for quantitation. In addition, cell viability of HepG2.2.15 cells incubated with test compounds alone or in combination was determined by using CellTitre-Glo reagent according to the manufacturer protocol (Promega). The mean background signal from wells containing only culture medium was subtracted from all other samples, and percent inhibition at each compound concentration was calculated by normalizing to signals from HepG2.2.15 cells treated with 0.5% DMSO using equation E1.
% inhibition (DMSOave−Xi)DMSOave×100% E1:
where DMSOave is the mean signal calculated from the wells that were treated with DMSO control (0% inhibition control) and X^1 is the signal measured from the individual wells. EC50 values, effective concentrations that achieved 50% inhibitory effect, were determined by non-linear fitting using Graphpad Prism software (San Diego, Calif.) and equation E2.
Y=Ymin+(Ymax−Ymin)/(1+10(Log EC50−X)×HillSlope) E2:
where Y represents percent inhibition values and X represents the logarithm of compound concentrations.
Selected disclosed compounds were assayed in the HBV replication assay (BDNA assay), as described above, and a representative group of these active compounds is shown in Table 3. […] In Table 3, “A” represents 1 nM<EC50≤100 nM; “B” represents 100 nM<EC50≤1,000 nM; and “C” represents 1,000 nM<EC50≤10,000 nM.

SMILES	EC50 [µM]
C[C@H]1Cc2onc(-c3ncccn3)c2CN1C(=O)Nc1ccc(F)c(C(F)(F)F)c1 [Example 7, (S)—N-(4-Fluoro-3-(trifluoromethyl)phenyl)-6-methyl-3-(pyrimidin-2-yl)-6,7-dihydroisoxazolo[4,5-c]pyridine-5(4H)-carboxamide]	0.1 to 1
CC1(C)CN(C(=O)Nc2ccc(F)c(C(F)(F)F)c2)Cc2c(-c3ncccn3)noc21 [Example 14, N-(4-Fluoro-3-(trifluoromethyl)phenyl)-7,7-dimethyl-3-(pyrimidin-2-yl)-6,7-dihydroisoxazolo[4,5-c]pyridine-5(4H)-carboxamide]	1 to 10
CC1(C)CN(C(=O)Nc2ccc(F)c(C(F)(F)F)c2)Cc2c1noc2-c1ncccn1 [Example 10, N-(4-Fluoro-3-(trifluoromethyl)phenyl)-7,7-dimethyl-3-(pyrimidin-2-yl)-6,7-dihydroisoxazolo[4,3-c]pyridine-5(4H)-carboxamide]	0.1 to 1
C[C@H]1Cc2onc(-c3ncccn3)c2CN1C(=O)Nc1ccnc(Br)c1F [Example 8, (S)—N-(2-Bromo-3-fluoropyridin-4-yl)-6-methyl-3-(pyrimidin-2-yl)-6,7-dihydroisoxazolo[4,5-c]pyridine-5(4H)-carboxamide]	0.1 to 1
C[C@H]1Cc2onc(-c3ncccn3)c2CN1C(=O)Nc1ccnc(C(F)F)c1F [Example 6, (S)—N-(2-(Difluoromethyl)-3-fluoropyridin-4-yl)-6-methyl-3-(pyrimidin-2-yl)-6,7-dihydroisoxazolo[4,5-c]pyridine-5(4H)-carboxamide]	0.001 to 0.1
CC1(C)CN(C(=O)Nc2ccnc(Br)c2F)Cc2c1noc2-c1ncccn1 [Example 12, N-(2-Bromo-3-fluoropyridin-4-yl)-7,7-dimethyl-3-(pyrimidin-2-yl)-6,7-dihydroisoxazolo[4,3-c]pyridine-5(4H)-carboxamide]	0.001 to 0.1
C[C@H]1Cc2noc(-c3ncccn3)c2CN1C(=O)Nc1ccnc(Br)c1F [Example 4, (S)—N-(2-Bromo-3-fluoropyridin-4-yl)-6-methyl-3-(pyrimidin-2-yl)-6,7-dihydroisoxazolo[4,3-c]pyridine-5(4H)-carboxamide]	0.001 to 0.1
CC1(C)CN(C(=O)Nc2ccc(F)c(C#N)c2)Cc2c1noc2-c1ncccn1 [Example 9, N-(3-Cyano-4-fluorophenyl)-7,7-dimethyl-3-(pyrimidin-2-yl)-6,7-dihydroisoxazolo[4,3-c]pyridine-5(4H)-carboxamide]	0.001 to 0.1
CC1(C)CN(C(=O)Nc2ccnc(Br)c2F)Cc2c(-c3ncccn3)noc21 [Example 16, N-(2-Bromo-3-fluoropyridin-4-yl)-7,7-dimethyl-3-(pyrimidin-2-yl)-6,7-dihydroisoxazolo[4,5-c]pyridine-5(4H)-carboxamide]	0.001 to 0.1
C[C@H]1Cc2noc(-c3ncccn3)c2CN1C(=O)Nc1ccc(F)c(C#N)c1 [Example 1, (S)—N-(3-Cyano-4-fluorophenyl)-6-methyl-3-(pyrimidin-2-yl)-6,7-dihydroisoxazolo[4,3-c]pyridine-5(4H)-carboxamide]	0.001 to 0.1
CC1(C)CN(C(=O)Nc2ccc(F)c(C#N)c2)Cc2c(-c3ncccn3)noc21 [Example 13, N-(3-Cyano-4-fluorophenyl)-7,7-dimethyl-3-(pyrimidin-2-yl)-6,7-dihydroisoxazolo[4,5-c]pyridine-5(4H)-carboxamide]	0.1 to 1
C[C@H]1Cc2noc(-c3ncccn3)c2CN1C(=O)Nc1ccnc(C(F)F)c1F [Example 2, (S)—N-(2-(Difluoromethyl)-3-fluoropyridin-4-yl)-6-methyl-3-(pyrimidin-2-yl)-6,7-dihydroisoxazolo[4,3-c]pyridine-5(4H)-carboxamide]	0.001 to 0.1
CC1(C)CN(C(=O)Nc2ccnc(C(F)F)c2F)Cc2c1noc2-c1ncccn1 [Example 11, N-(2-(Difluoromethyl)-3-fluoropyridin-4-yl)-7,7-dimethyl-3-(pyrimidin-2-yl)-6,7-dihydroisoxazolo[4,3-c]pyridine-5(4H)-carboxamide]	0.1 to 1
C[C@H]1Cc2noc(-c3ncccn3)c2CN1C(=O)Nc1ccc(F)c(C(F)(F)F)c1 [Example 3, (S)—N-(4-Fluoro-3-(trifluoromethyl)phenyl)-6-methyl-3-(pyrimidin-2-yl)-6,7-dihydroisoxazolo[4,3-c]pyridine-5(4H)-carboxamide]	0.001 to 0.1
CC1(C)CN(C(=O)Nc2ccnc(C(F)F)c2F)Cc2c(-c3ncccn3)noc21 [Example 15, N-(2-(Difluoromethyl)-3-fluoropyridin-4-yl)-7,7-dimethyl-3-(pyrimidin-2-yl)-6,7-dihydroisoxazolo[4,5-c]pyridine-5(4H)-carboxamide]	0.1 to 1
C[C@H]1Cc2onc(-c3ncccn3)c2CN1C(=O)Nc1ccc(F)c(C#N)c1 [Example 5, (S)—N-(3-Cyano-4-fluorophenyl)-6-methyl-3-(pyrimidin-2-yl)-6,7-dihydroisoxazolo[4,5-c]pyridine-5(4H)-carboxamide]	0.001 to 0.1
